According to US7332489B2, “Methods and compositions of novel triazine compounds” (Reddy US Therapeutics, Inc., priority 2003, dated 2008):
Like-named read-outs stand apart in the source and are kept apart here.

System: TNF-α induced IL-6
Test: TNF-α-induced IL-6 production determined by IL-6 ELISA
Type: cell-based
Conditions: Homo sapiens, 24 h, class = % of control IL6 production
Description: Human aortic endothelial cells (HAEC, Clonetics) were cultured according to manufacturer in growth medium (Clonetics): basal medium containing human epidermal growth factor, hydrocortisone, vascular endothelial growth factor, heparin binding growth factor-B, long R3-insulin-like growth factor-1, ascorbic acid, gentamicin/amphotericin and 5% FBS. These cell were allowed to reach at least 90% confluency before subjected to experimental treatments. […] Tumor necrosis factor α was from R&D Systems.
All treatments, compound-added and controls were carried out in serum free media containing 0.2% albumin. Media from all conditions were collected and used for IL-6 ELISA.
IL-6 ELISA was carried out using human IL-6 DuoSet ELISA development kit as described by manufacturer (R&D Systems). Mouse anti-human Il-6 was used as the capture antibody (2 ug/ml) and biotinylated goat anti-human IL-6 (200 ng/ml) was used as the detection antibody. Culture media were incubated with capture antibody (in 96 well) for 2 h at room temperature. Wells were washed three times with wash buffer (0.05% tween-20 in phosphate buffered saline (PBS) pH 7.4) followed by incubation with detection antibody for 2 h at room temperature. Following three washes wells were incubated with Streptavidin-HRP for 20 min. Color development was read at 450 nm in a Microplate reader.

[1] = Table 5, first part, read-out: Inhibition of TNF-induced IL6 production
[2] = Table 5, second part, column 1, read-out: Inhibition of TNF-induced IL6, production

Compound CCN1CCCC1CNc1nc(Nc2cccc(NC(C)=O)c2)nc(NC2CCCCCC2)n1 (stereo not drawn) [Compound 30, N-{3-[(4-(cycloheptylamino)-6-{[(1-ethyl-2-pyrrolidinyl)methyl]amino}-1,3,5-triazin-2-yl)-amino]phenyl}acetamide] has an activity at 10 µM [1] of 0 to 25% and an activity at 10 µM [2] of 0 to 25%.
For CCOc1ccc(Nc2nc(NCC3CCCN3CC)nc(NC3CCCCCC3)n2)cc1 (stereo not drawn) [Compound 32, N^2-cycloheptyl-N^4-(4-ethoxyphenyl)-N^6-[(1-ethyl-2-pyrrolidinyl)methyl]-1,3,5-triazine-2,4,6-triamine], the activity at 10 µM [2] was 0 to 25%.
With CCN1CCCC1CNc1nc(Nc2ccccn2)nc(NC2CCCCCC2)n1 (stereo not drawn) [Compound 34, N^2-cycloheptyl-N^4-[(1-ethyl-2-pyrrolidinyl)methyl]-N^6-(2-pyridinyl)-1,3,5-triazine-2,4,6-triamine] the activity at 10 µM [1] was 0 to 25% and the activity at 10 µM [2] was 0 to 25%.
For CCN1CCCC1CNc1nc(Nc2ccccc2C)nc(NC2CCCCCC2)n1 (stereo not drawn) [Compound 35, N^2-cycloheptyl-N^4-[(1-ethyl-2-pyrrolidinyl)methyl]-N^6-(2-methylphenyl)-1,3,5-triazine-2,4,6-triamine], the activity at 10 µM [1] was 25 to 50% and the activity at 10 µM [2] was 0 to 25%.
Compound CCN1CCCC1CNc1nc(NC2CCCCCC2)nc(N(C)c2ccc(Cl)cc2)n1 (stereo not drawn) [Compound 40, N^2-(4-chlorophenyl)-N^4-cycloheptyl-N^6-[(1-ethyl-2-pyrrolidinyl)methyl]-N^2-methyl-1,3,5-triazine-2,4,6-triamine] has an activity at 10 µM [2] of 0 to 25%.
With CCN1CCCC1CNc1nc(NC2CCCCCC2)nc(N(CCC#N)c2ccccc2)n1 (stereo not drawn) [Compound 41, 3-[(4-(cycloheptylamino)-6-{[(1-ethyl-2-pyrrolidinyl)methyl]amino}-1,3,5-triazin-2-yl)-(phenyl)amino]propanenitrile] the activity at 10 µM [2] was 0 to 25%.
In the case of CCN1CCCC1CNc1nc(NC2CCCCCC2)nc(N(C)c2ccc(OC)cc2)n1 (stereo not drawn) [Compound 42, N^2-cycloheptyl-N^4-[(1-ethyl-2-pyrrolidinyl)methyl]-N^6-(4-methoxyphenyl)-N^6-methyl-1,3,5-triazine-2,4,6-triamine], the activity at 10 µM [1] is reported as 0 to 25% and the activity at 10 µM [2] is reported as 0 to 25%.
For CCN1CCCC1CNc1nc(NC2CCCCCC2)nc(N(C)c2ccc(F)cc2F)n1 (stereo not drawn) [Compound 43, N^2-cycloheptyl-N^4-(2,4-difluorophenyl)-N^6-[(1-ethyl-2-pyrrolidinyl)methyl]-N^4-methyl-1,3,5-triazine-2,4,6-triamine], the activity at 10 µM [2] was 0 to 25%.
Compound CCN1CCCC1CNc1nc(NC2CCCCCC2)nc(N(CC#N)c2ccccc2)n1 (stereo not drawn) [Compound 44, [(4-(cycloheptylamino)-6-{[(1-ethyl-2-pyrrolidinyl)methyl]amino}-1,3,5-triazin-2-yl)(phenyl)amino]acetonitrile] has an activity at 10 µM [2] of 0 to 25%.
Work on CCN1CCCC1CNc1nc(NC2CCCCCC2)nc(N(C)c2cccc(Cl)c2)n1 (stereo not drawn) [Compound 45, N^2-(3-chlorophenyl)-N^4-cycloheptyl-N^6-[(1-ethyl-2-pyrrolidinyl)methyl]-N^2-methyl-1,3,5-triazine-2,4,6-triamine] yielded an activity at 10 µM [2] of 0 to 25%.
Work on CCN1CCCC1CNc1nc(NC2CCCCCC2)nc(N(C)c2ccccc2C(F)(F)F)n1 (stereo not drawn) [Compound 46, N^2-cycloheptyl-N^4-[(1-ethyl-2-pyrrolidinyl)methyl]-N^6-methyl-N^6-[2-(trifluoromethyl)phenyl]-1,3,5-triazine-2,4,6-triamine] yielded an activity at 10 µM [2] of 0 to 25%.
CCN1CCCC1CNc1nc(Nc2ccc(OC)c(Cl)c2)nc(NC2CCCCCC2)n1 (stereo not drawn) [Compound 48, N^2-(3-chloro-4-methoxyphenyl)-N^4-cycloheptyl-N^6-[(1-ethyl-2-pyrrolidinyl)methyl]-1,3,5-triazine-2,4,6-triamine] gave an activity at 10 µM [1] of 25 to 50%.
For CCNc1nc(NCC2CCCN2CC)nc(Nc2ccc(OC)c(F)c2)n1 (stereo not drawn) [Compound 51, N^2-ethyl-N^4-[(1-ethyl-2-pyrrolidinyl)methyl]-N^6-(3-fluoro-4-methoxyphenyl)-1,3,5-triazine-2,4,6-triamine], the activity at 10 µM [1] was 0 to 25%.
CCN1CCCC1CNc1nc(Nc2ccc(OC)c(F)c2)nc(NC(C)(C)C)n1 (stereo not drawn) [Compound 52, N^2-(tert-butyl)-N^4-[(1-ethyl-2-pyrrolidinyl)methyl]-N^6-(3-fluoro-4-methoxyphenyl)-1,3,5-triazine-2,4,6-triamine] was tested, and the activity at 10 µM [1] was 0 to 25% and the activity at 10 µM [2] was 25 to 50%.
CCN1CCCC1CNc1nc(NCc2ccccc2)nc(Nc2ccc(OC)c(F)c2)n1 (stereo not drawn) [Compound 53, N^2-benzyl-N^4-[(1-ethyl-2-pyrrolidinyl)methyl]-N^6-(3-fluoro-4-methoxyphenyl)-1,3,5-triazine-2,4,6-triamine] showed an activity at 10 µM [1] of 0 to 25% and an activity at 10 µM [2] of 25 to 50%.
CCN1CCCC1CNc1nc(Nc2ccc(OC)c(F)c2)nc(NC2CCCCC2)n1 (stereo not drawn) [Compound 55, N^2-cyclohexyl-N^4-[(1-ethyl-2-pyrrolidinyl)methyl]-N^6-(3-fluoro-4-methoxyphenyl)-1,3,5-triazine-2,4,6-triamine] gave an activity at 10 µM [1] of 0 to 25%.
Compound CCN1CCCC1CNc1nc(Nc2ccc(OC)c(F)c2)nc(NC2CCCC2)n1 (stereo not drawn) [Compound 56, N^2-cyclopentyl-N^4-[(1-ethyl-2-pyrrolidinyl)methyl]-N^6-(3-fluoro-4-methoxyphenyl)-1,3,5-triazine-2,4,6-triamine] has an activity at 10 µM [1] of 0 to 25%.
With CCN1CCCC1CNc1nc(Nc2ccc(OC)c(F)c2)nc(N2CCCC2)n1 (stereo not drawn) [Compound 57, N^2-[(1-ethyl-2-pyrrolidinyl)methyl]-N^4-(3-fluoro-4-methoxyphenyl)-6-(1-pyrrolidinyl)-1,3,5-triazine-2,4-diamine] the activity at 10 µM [1] was 0 to 25% and the activity at 10 µM [2] was 25 to 50%.
With CCN1CCCC1CNc1nc(Nc2ccc(OC)c(F)c2)nc(N2CCCCCC2)n1 (stereo not drawn) [Compound 58, N^2-[(1-ethyl-2-pyrrolidinyl)methyl]-N^4-(3-fluoro-4-methoxyphenyl)-N^6-hexahydro-1H-azepin-1-yl-1,3,5-triazine-2,4-diamine] the activity at 10 µM [1] was 0 to 25% and the activity at 10 µM [2] was 25 to 50%.
CCN1CCCC1CNc1nc(Nc2ccc(OC)c(F)c2)nc(NC2CCC(C)CC2)n1 (stereo not drawn) [Compound 60, N^2-[(1-ethyl-2-pyrrolidinyl)methyl]-N^4-(3-fluoro-4-methoxyphenyl)-N^6-(4-methylcyclohexyl)-1,3,5-triazine-2,4,6-triamine] was tested, and the activity at 10 µM [1] was 0 to 25%.
In the case of CCN1CCCC1CNc1nc(Nc2ccc(OC)c(F)c2)nc(N2CCN(C)CC2)n1 (stereo not drawn) [Compound 62, N^2-[(1-ethyl-2-pyrrolidinyl)methyl]-N^4-(3-fluoro-4-methoxyphenyl)-6-(4-methyl-1-piperazinyl)-1,3,5-triazine-2,4-diamine], the activity at 10 µM [2] is reported as 25 to 50%.
Compound CCN1CCCC1CNc1nc(Nc2ccc(OC)c(F)c2)nc(N2CCN(C(C)=O)CC2)n1 (stereo not drawn) [Compound 63, 6-(4-acetyl-1-piperazinyl)-N^2-[(1-ethyl-2-pyrrolidinyl)methyl]-N^4-(3-fluoro-4-methoxyphenyl)-1,3,5-triazine-2,4-diamine] has an activity at 10 µM [1] of 25 to 50%.
For CCOC(=O)N1CCN(c2nc(NCC3CCCN3CC)nc(Nc3ccc(OC)c(F)c3)n2)CC1 (stereo not drawn) [Compound 64, Ethyl 4-{4-{[(1-ethyl-2-pyrrolidinyl)methyl]amino}-N^6-[(3-fluoro-4-methoxyphenyl)amino]-1,3,5-triazin-2-yl}-1-piperazinecarboxylate], the activity at 10 µM [1] was 25 to 50%.
CCN1CCCC1CNc1nc(NCC2CCCCC2)nc(Nc2ccc(OC)c(F)c2)n1 (stereo not drawn) [Compound 65, N^2-(cyclohexylmethyl)-N^4-[(1-ethyl-2-pyrrolidinyl)methyl]-N^6-(3-fluoro-4-methoxyphenyl)-1,3,5-triazine-2,4,6-triamine] gave an activity at 10 µM [1] of 0 to 25% and an activity at 10 µM [2] of 25 to 50%.
CCN1CCCC1CNc1nc(NCc2ccco2)nc(Nc2ccc(OC)c(F)c2)n1 (stereo not drawn) [Compound 66, N^2-[(1-ethyl-2-pyrrolidinyl)methyl]-N^4-(3-fluoro-4-methoxyphenyl)-N^6-(2-furylmethyl)-1,3,5-triazine-2,4,6-triamine] gave an activity at 10 µM [1] of 0 to 25% and an activity at 10 µM [2] of 0 to 25%.
For CCN1CCCC1CNc1nc(NCC(F)(F)F)nc(Nc2ccc(OC)c(F)c2)n1 (stereo not drawn) [Compound 67, N^2-[(1-ethyl-2-pyrrolidinyl)methyl]-N^4-(3-fluoro-4-methoxyphenyl)-N^6-(2,2,2-trifluoroethyl)-1,3,5-triazine-2,4,6-triamine], the activity at 10 µM [2] was 25 to 50%.
CCN1CCCC1CNc1nc(NCCN(C)C)nc(Nc2ccc(OC)c(F)c2)n1 (stereo not drawn) [Compound 68, N^2-[2-(dimethylamino)ethyl]-N^4-[(1-ethyl-2-pyrrolidinyl)methyl]-N^6-(3-fluoro-4-methoxyphenyl)-1,3,5-triazine-2,4,6-triamine] showed an activity at 10 µM [1] of 0 to 25% and an activity at 10 µM [2] of 25 to 50%.
CCN1CCCC1CNc1nc(Nc2ccc(OC)c(F)c2)nc(N2CCN(CC(=O)N3CCCC3)CC2)n1 (stereo not drawn) [Compound 69, N^2-[(1-ethyl-2-pyrrolidinyl)methyl]-N^4-(3-fluoro-4-methoxyphenyl)-N^6-{4-[2-oxo-2-(1-pyrrolidinyl)ethyl]-1-piperazinyl}-1,3,5-triazine-2,4-diamine] gave an activity at 10 µM [1] of 0 to 25% and an activity at 10 µM [2] of 0 to 25%.
Compound CCN1CCCC1CNc1nc(NCC2CCCN2CC)nc(Nc2ccc(OC)c(F)c2)n1 (stereo not drawn) [Compound 70, N^2,N^4-bis[(1-ethyl-2-pyrrolidinyl)methyl]-N^6-(3-fluoro-4-methoxyphenyl)-1,3,5-triazine-2,4,6-triamine] has an activity at 10 µM [1] of 0 to 25% and an activity at 10 µM [2] of 25 to 50%.
